Test results published in BigSolDB 2.1.

COc1ccc2[nH]cc(CCNC(C)=O)c2c1
solubility (mole fraction)
Conditions	278.15 K	283.15 K	288.15 K	293.15 K	298.15 K	303.15 K	308.15 K	313.15 K	318.15 K	323.15 K
in ethanol	0.00853	0.0113	0.0151	0.02	0.0254	0.032	0.0406	0.0527	0.0665	0.0844
in isobutanol	0.00406	0.00538	0.0073	0.00972	0.0127	0.0167	0.0212	0.0276	0.0352	0.0441
in methanol	0.0116	0.0158	0.0211	0.0282	0.0357	0.0462	0.0594	0.0757	0.0963	0.122
in methyl acetate	0.00303	0.00406	0.00531	0.00688	0.0085	0.0112	0.0144	0.0191	0.0244	0.0306
in n-butanol	0.00518	0.00676	0.009	0.0118	0.0152	0.0199	0.0257	0.0328	0.0425	0.0536
in n-hexanol	0.0038	0.00497	0.00679	0.00872	0.0114	0.0146	0.019	0.0244	0.0308	0.0393
in n-pentanol	0.00515	0.00671	0.00889	0.0114	0.0145	0.0184	0.0233	0.0291	0.0365	0.0444
in n-propanol	0.00602	0.00792	0.0108	0.0147	0.0197	0.0254	0.0329	0.0418	0.0538	0.0701
